# “Also recorded” adds a separate entry of the source. Where two headings read alike, the source gives them in different places. Residues, ends and D or L forms follow the SMILES beside them. *: point of attachment. Cbz = O=C(OCc1ccccc1)*
# Key:
# [1] = test system: 20S and/or 26S proteasome; test: FACS-based proteasome activity assay with Me4BodipyFL-Ahx3Leu3VS activity probe in MelJuSo wild type cells; assay type: cell-based, human
# Method: MelJuSo cells are washed, trypsinized and resuspended in medium containing FBS and antibiotics. After counting the concentration is adjusted to 200,000 cells per mL. Using the Wellmate microplate dispenser fitted with small bore nozzle tubing, 50 μL of cell suspension is transferred to each well of a black 384 wells plate (10,000 cells/well).
# A brief spin down will prevent any liquid from being lost when the plate cover is removed. Using a Hamilton liquid handling workstation the compounds are diluted to appropriate concentrations. To “wash” the cells prior to exposure 30 μL of medium is removed from each well and is replaced with fresh medium. Then the compounds are added to the medium of the cells (final concentration 5 μM).
# Using the Wellmate microplate dispenser fitted with small bore nozzle tubing, […] of probe suspension is transferred to each well resulting in a final probe concentration of 200 nM. Plates are left to incubate for two hours. Then the medium is removed and the cells are washed one time with PBS. The PBS is removed and 10 μL of trypsin is added to each well. The plates are left on a shaker for 2 minutes, placed in an incubator for 5 minutes and put on a shaker again for 2 minutes. 40 μL of PBS containing 2% FBS is added per well and the plates are put on the shaker for 2 minutes. Finally, 20 μL of PBS containing 4% formaldehyde is added and the plates are left to shake for at least 15 minutes. Plates are left on a shaker at 4° C. until they can be measured.
# The FITS unit is installed on the FACS and everything is turned on. To remove air from the system and ascertain that everything works fine the system is primed twice. One by one the plates are brought down and measured. In between plates a “daily clean” cycle is performed to prevent the system from becoming clogged. After the last plate the system should be cleaned again.
# Analysis is always performed per plate. Throughout the analysis the following parameters are considered: • Forward Scatter (FSC): size of the cell • Side Scatter (SSC): granularity of the cell • Number of events (#) • Probe signal (FL-1): proteasome activity • FL-2 and FL-3: signal in other channels
# All DMSO samples are checked and aberrant wells (low # events, high SSC, no signal) are excluded. The average of the FL-1 from all remaining DMSO samples is used to calculate the “ratio vs. DMSO” and the FL-1 log 2 ratio of the experimental samples. This will result in DMSO samples having a FL-1 log 2 value around zero. Compounds are considered “activators” or “hits” if the FL-1 log 2 ratio is >1, and inhibitors if the FL-1 log 2 ratio is […].
# (§1) Cells were washed once with phosphate buffered saline (PBS, 1 GIBCO tablet in 500 mL MilliQ). Fresh medium containing the compound at the indicated concentration was added. After the incubation time 200 nM of Me4BodipyFL-Ahx3Leu3VS activity probe was added to the cells and after two hours of incubation cells were harvested for subsequent analysis by FACS or post-lysis fluorescence detection.
# Celts were washed once with PBS, trypsin was added and the plate was placed at 37° C. for 5 minutes to allow the cells to detach. When detached the cells were resuspended in PBS supplemented with 2% FBS. Cells were fixed with formaldehyde (final concentration 1% in PBS). All samples were measured using a FACSCalibur flow cytometer (BD Biosciences). […] The complete workflow used for the compound screens is described above in more detail.
# The compound libraries mentioned above are screened using a FACS-based activity assay. The proteasome activity probe Me4BodipyFL-Ahx3Leu3VS activity probe is used to fluorescently label the proteasome. This probe binds irreversibly to the catalytic domains of the 20S CP. When proteasome activity is increased, increased probe binding results in an increase in fluorescent signal compared to untreated cells.
# proteasome [2] = details: literature overview; cited from earlier work
# [3] = test system: proteasome subunits (β2- and β5-subunits); test: SDS-PAGE in-gel fluorescence of probe-labelled proteasome subunits in MelJuSo (MEL-JUSO) cells; assay type: cell-based, human; details: for activation effect on the β2- and β5-subunits: MEL-JUSO cells, p38 inhibitor panel tested at 1 and 5 μM, effect at 5 μM, FIG. 14B
# Method: as §1
# Cells were washed once with PBS, trypsin (6 well plate: 500 μL, 12 well plate: 200 μL, 24 well plate: 100 μL) was added and the plate was placed at 37° C. for 5 minutes to allow the cells to detach. When fully detached the cells were resuspended in fresh culture medium. Medium with cells was collected and after a centrifugation step (1100 ref for 2 minutes) the cells (pellet) were resuspended in cold HR buffer (50 mM Tris pH=7.4, 5 mM MgCl2, 250 mM sucrose, 1 mM DTT and 2 mM ATP). Lysis of the cells is achieved by sonification (Bioruptor, high intensity for 5 minutes with an ON/OFF cycle of 30 seconds) at 4° C. After a centrifugation step (13.600 rpm for 10 minutes) to remove cell debris the protein concentration (absorbance at 280 nm) of the supernatant is measured with a NanoDrop spectrophotometer. Fresh HR buffer without any cells was used as a blank,
# Equal amounts of protein (15-20 μg) were denatured by heating the samples for 10 minutes at 71° C. in loading buffer (450 μL 4× loading buffer (Invitrogen), 45 μL β-Mercaptoethanol and 105 μl, MilliQ, 2 parts sample to 1 part loading buffer). The samples were loaded onto a 12% SDS-PAGE gel using the NuPAGE system from Invitrogen. MOPS (3-(N-morpholino)propanesulfonic acid) was used as a running buffer. Gels run at 180 V for approximately 1.5-2.0 hours and were directly imaged using the ProXPRESS 2D Proteomic imaging system (Perkin Elmer). Resolution was set at 100 μm, excitation at 480/30 and emission at 530/30. To verify protein loading, gels were stained with Coomassie Brilliant Blue. Images were analyzed using Totallab analysis software (Nonlinear Dynamics, Newcastle upon Tyne, UK) to quantify the intensity of the bands detected.
# Additionally, FACS and SDS-PAGE validation experiments were done in which cells were incubated for 16 hours with 0.1, 0.5, 1.0 or 5.0 μM compound.
# The proteasomal subunits are then labeled using the fluorescent […] probe, which selectively binds only to active β-subunits of the proteasome. The fluorogenic-labeled proteasome subunits were visualized directly in-gel by fluorescence scanning.
# To further investigate this, MelJuSo wild type cells were incubated with 5 μM Win 62,577 for one hour. Then the medium was changed for regular medium without the compound present. After one or two hours of “washout” cells were stained with the proteasome activity probe and analyzed with SDS-PAGE followed by fluorescent scanning of the gel. The results of this experiment are depicted in FIG. 17.
# p38α = p38α (Homo sapiens, UniProt Q16539); details: literature [80, 83]; cited from earlier work
# MelJuSo wild type cells = test: Cell viability (resazurin) assay, MG132 induced cell death; details: 1 μM, 24 hours
# proteasome [4] = details: literature overview; cited from earlier work; remark: listed apart in the source
# [5] = LOPAC and JHCCL library screen, 5 μM compound, 16 hours, 200 nM probe two hours
# p38α, sequence (Q16539 whole entry): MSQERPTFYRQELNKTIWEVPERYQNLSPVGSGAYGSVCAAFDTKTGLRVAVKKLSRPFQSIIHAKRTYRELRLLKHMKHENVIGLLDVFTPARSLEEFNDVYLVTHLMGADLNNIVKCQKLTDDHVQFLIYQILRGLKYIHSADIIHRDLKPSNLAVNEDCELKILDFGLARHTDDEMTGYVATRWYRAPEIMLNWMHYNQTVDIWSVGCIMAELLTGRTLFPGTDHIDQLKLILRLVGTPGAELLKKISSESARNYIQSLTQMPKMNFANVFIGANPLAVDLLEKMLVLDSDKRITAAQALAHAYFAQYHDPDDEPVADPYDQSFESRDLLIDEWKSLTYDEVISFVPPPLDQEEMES
compound,measurement,setting,value
"Nc1ccc2cc3ccc(N)cc3nc2c1 [proflavine, Proflavine]",screening hit (FL-1 log 2 ratio >1.00 and no exclusion criterion met),[1]; [5],identified as hits
Medroxyprogesterone,screening hit (FL-1 log 2 ratio >1.00 and no exclusion criterion met),[1],initially identified in the JHCCL screen
"CN1C[C@H](CNC(=O)OCc2ccccc2)C[C@@H]2c3cccc4c3c(cn4C)C[C@H]21 [metergoline, Metergoline]",screening hit (FL-1 log 2 ratio >1.00 and no exclusion criterion met),[1]; [5],identified as hits
"CCCn1c(=O)c2[nH]c(C3CCCC3)nc2n(CCC)c1=O [DPCPX, 8-cyclopenthyl-1,3-dipropylxanthine]",time dependence of proteasome activation (FL-1 log 2 ratio),"[1]; 0.1, 0.5, 1.0 or 5.0 μM compound for 4, 16, 24 or 48 hours",both concentration and time dependent; also recorded: displayed an increase in activation over time
same,screening hit (FL-1 log 2 ratio >1.00 and no exclusion criterion met),[1]; [5],identified as hits
Lysophosphatidylinositol,Results: purified proteasome/lysate,proteasome [2],Increases mainly
CCCCCCCC/C=C\CCCCCCCC(=O)O [Oleic acid],Results: purified proteasome/lysate,proteasome [2],Increases all 3 proteasome
Ceramides,Results: purified proteasome/lysate,proteasome [2],Increases mainly
CCCCCCCCCCCCOS(=O)(=O)[O-].[Na+] [SDS],Results: purified proteasome/lysate,proteasome [2],Increases all 3 proteasome
COc1cccc(-c2cc(=O)c3ccccc3o2)c1N [PD98059],activation effect on the β2- and β5-subunits,[3],most pronounced; also recorded: pronounced activation effect
same,activation effect on the β2- and β5-subunits,[3]; listed as PD98052,seems to enhance the activity
"CN(C)C(=O)C(CCN1CCC(O)(c2ccc(Cl)cc2)CC1)(c1ccccc1)c1ccccc1 [loperamide, Loperamide]",screening hit (FL-1 log 2 ratio >1.00 and no exclusion criterion met),[1],identified as hits
Polyarginine,Results: purified proteasome/lysate,proteasome [2],Increases mainly
Polylysine,Results: purified proteasome/lysate,proteasome [2],Increases mainly
"COc1ccc(CCN(C)CCCC(C#N)(c2ccc(OC)c(OC)c2)C(C)C)cc1OC (centres unmarked) [verapamil, Verapamil]",screening hit (FL-1 log 2 ratio >1.00 and no exclusion criterion met),[1],identified as hits in both
"C#C[C@]1(O)CC[C@H]2C3CCC4=Cc5nc6nc7ccccc7n6cc5C[C@]4(C)C3CC[C@@]21C (some centres unmarked) [Win 62,577]","probe signal after one hour of incubation, no washout",[3],strong activation; also recorded: clear increase in signal
same,probe signal after one hour of washout,[3],still more than the untreated control but less when compared to the no washout
same,probe signal after two hours of washout,[3],disappeared
same,timeframe of onset and termination of increasing proteasome activity,[3],1 to 2 h
same,concentration dependence of proteasome activation (FL-1 signal),[1],dose-dependent increase of the fluorescent signal
same,screening hit (FL-1 log 2 ratio >1.00 and no exclusion criterion met),[1],identified as hits
same,time dependence of proteasome activation (FL-1 log 2 ratio),[1],mild decrease after 48 hours of incubation
CC/C=C\C/C=C\C/C=C\CCCCCCCC(=O)O [alpha linolenic acid],Results: purified proteasome/lysate,proteasome [2],Increases all 3 proteasome
Fc1ccc(-c2nc3n(c2-c2ccncc2)CCS3)cc1 [SKF86002],inhibition of p38α isoform,p38α,inhibits only p38α
"CC#C[C@]1(O)CC[C@H]2[C@@H]3CCC4=CC(=O)CCC4=C3[C@@H](c3ccc(N(C)C)cc3)C[C@@]21C [mifepristone, Mifepristone]",screening hit (FL-1 log 2 ratio >1.00 and no exclusion criterion met),[1]; [5],identified as hits
CC(C)C[C@@H](C=O)NC(=O)[C@H](CC(C)C)NC(=O)[C@H](CC(C)C)NC(=O)OCc1ccccc1 [MG132] (Cbz-Leu-Leu-Leu-aldehyde),cytotoxicity,MelJuSo wild type cells,highly cytotoxic
same,fluorescent probe signal compared to untreated cells,[1],reduces the signal compared to untreated cells
CN(C)CCC[C@@]1(c2ccc(F)cc2)OCc2cc(C#N)ccc21 [escitalopram],screening hit (FL-1 log 2 ratio >1.00 and no exclusion criterion met),[1]; [5],initially identified in the JHCCL screen
CN1[C@@H]2CC[C@H]1C[C@@H](OC(c1ccccc1)c1ccccc1)C2 [benztropin],screening hit (FL-1 log 2 ratio >1.00 and no exclusion criterion met),[1]; [5],initially identified in the JHCCL screen
"OCCN(CCO)c1nc(N2CCCCC2)c2nc(N(CCO)CCO)nc(N3CCCCC3)c2n1 [dipyrimadole, Dipyrimadole]",screening hit (FL-1 log 2 ratio >1.00 and no exclusion criterion met),[1]; [5],identified as hits in both
Oc1ccc(-c2nc(-c3ccc(F)cc3)c(-c3ccncc3)[nH]2)cc1 [SB202190],activation effect on the β2- and β5-subunits,[3],pronounced activation effect
same,activation effect on the β2- and β5-subunits,[3]; listed as SB202150,most pronounced
same,inhibition of p38α isoform,p38α,inhibits both the p38α and p38β-isoforms
Methylbenzethonium,screening hit (FL-1 log 2 ratio >1.00 and no exclusion criterion met),[1]; [5],identified as hits
"CC(C)OC(=O)C(C)(C)Oc1ccc(C(=O)c2ccc(Cl)cc2)cc1 [fenofibrate, Fenofibrate]",screening hit (FL-1 log 2 ratio >1.00 and no exclusion criterion met),[1]; [5],identified as hits
CCCCC/C=C\C/C=C\CCCCCCCC(=O)O [Linoleic acid],Results: purified proteasome/lysate,proteasome [2],Increases all 3 proteasome
"Cc1cc(C(=O)CN2CCCC2)c(C)n1-c1ccc(F)cc1 [USP14 inhibitor, IU1]",Results: purified proteasome/lysate,proteasome [2],Increases all 3 proteasome
same,FL-1 log 2 score compared to the compounds identified in the screen,"[1]; 5 μM, 16 hours, triplicate",scores relatively low
same,Results: live cells,proteasome [4],Increases all 3
Cardiolipin,Results: purified proteasome/lysate,proteasome [2],Increases mainly
"O=c1[nH]c2ccccc2n1C1CCN(CCCC(c2ccc(F)cc2)c2ccc(F)cc2)CC1 [pimozide, Pimozide]",screening hit (FL-1 log 2 ratio >1.00 and no exclusion criterion met),[1]; [5],identified as hits
